The supplement of paper PMC11061612

How the values were obtained:
Test in all cases: Bliss excess, mean over the matrix (fraction); higher = more synergy
[1] = test system: PC-14 (Lung Adenocarcinoma)
Procedure, shortened: (§1)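 Cell lines grown in DMEM/F12 or RPMI with 10% FBS were plated in 1536-well plates and held 24 hours at 37°C, 5% CO2 before 72 hours of exposure to two-drug dose matrices, with DMSO typically at 0.2%. CellTiter-Glo 2.0 luminescence gave viability, which was converted to inhibition. Vehicle wells were set to 0 and blank wells to 1. Combination Emax is the second-highest inhibition in the matrix, and Bliss excess is the observed combination effect minus the expected EA + EB − EA·EB, where EA and EB are the single-agent effects.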

[2] = test system: OV-90 (Ovarian Carcinoma)
Procedure, shortened: as §1

[3] = test system: RMG-I (Ovarian Carcinoma)
Procedure, shortened: as §1

[4] = test system: HTC-C3 (Thyroid Gland Carcinoma)
Procedure, shortened: as §1

[5] = test system: HSC-3 (Oral Cavity Carcinoma)
Procedure, shortened: as §1

[6] = test system: SNU-175 (Colorectal Carcinoma)
Procedure, shortened: as §1

[7] = test system: NCI-H1155 (Non-Small Cell Lung Carcinoma)
Procedure, shortened: as §1

[8] = test system: SK-MM-2 (Plasma Cell Myeloma)
Procedure, shortened: as §1

CHL-1 (Melanoma) = test system: CHL-1 (Melanoma)
Procedure, shortened: as §1

KYM-1 (Rhabdomyosarcoma) = test system: KYM-1 (Rhabdomyosarcoma)
Procedure, shortened: as §1

[9] = test system: PANC-02-03 (Pancreatic Carcinoma)
Procedure, shortened: as §1

[10] = test system: AsPC-1 (Pancreatic Carcinoma)
Procedure, shortened: as §1

[11] = test system: RL95-2 (Endometrial Carcinoma)
Procedure, shortened: as §1

RT4 (Bladder Carcinoma) = test system: RT4 (Bladder Carcinoma)
Procedure, shortened: as §1

[12] = test system: OVTOKO (Ovarian Carcinoma)
Procedure, shortened: as §1

786-0 (Kidney Carcinoma) = test system: 786-0 (Kidney Carcinoma)
Procedure, shortened: as §1

[13] = test system: JHH-1 (Hepatocellular Carcinoma)
Procedure, shortened: as §1

[14] = test system: RPMI-8866 (Chronic Myelogenous Leukemia)
Procedure, shortened: as §1

[15] = test system: COLO-684 (Endometrial Carcinoma)
Procedure, shortened: as §1

[16] = test system: OCI-AML5 (Acute Myeloid Leukemia)
Procedure, shortened: as §1

Compound	Bliss excess [1]	Bliss excess [2]	Bliss excess [3]	Bliss excess [4]	Bliss excess [5]	Bliss excess [6]	Bliss excess [7]	Bliss excess [8]	Bliss excess (CHL-1 (Melanoma))	Bliss excess (KYM-1 (Rhabdomyosarcoma))	Bliss excess [9]	Bliss excess [10]	Bliss excess [11]	Bliss excess (RT4 (Bladder Carcinoma))	Bliss excess [12]	Bliss excess (786-0 (Kidney Carcinoma))	Bliss excess [13]	Bliss excess [14]	Bliss excess [15]	Bliss excess [16]
COc1nnc2ccc(N3CCC(c4ccc(OCCN5CCN(C)C(=O)[C@H]5C)cc4)CC3)nn12 [AZD5153] + C[C@@H]1COCCN1C2=NC(=NC(=C2)C3(CC3)[S@](=N)(=O)C)C4=C5C=CNC5=NC=C4 [AZD6738] (first compound max 1 µM, 7x7, partner max 10 µM)	0.0294	-0.0249	-0.0261	-0.0187	-0.0181	0.0289	0.0406	-0.0831	-0.0569	-0.0398	-0.0366	0.0778	0.0017	0.0449	0.0999	0.0479	0.0386	-0.0364	-0.0231	0.0158
COc1nnc2ccc(N3CCC(c4ccc(OCCN5CCN(C)C(=O)[C@H]5C)cc4)CC3)nn12 [AZD5153] + Cc1c2c(nn1C)CSCc1cc(n(C)n1)CSc1cc(c3ccccc3c1)OCCCc1c(C(=O)O)n(C)c3c-2c(Cl)ccc13 [AZD5991] (first compound max 1 µM, 7x7, partner max 1 µM)	-0.0145	-0.0389	-0.0553	-0.0441	-0.0069	0.0113	-0.0091	-0.0156	0.0613	0.0335	-0.0493	-0.0639	-0.0414	0.0009	-0.0536	-0.0166	0.106	-0.0361	-0.0106	0.134
COc1nnc2ccc(N3CCC(c4ccc(OCCN5CCN(C)C(=O)[C@H]5C)cc4)CC3)nn12 [AZD5153] + Cn1cnc2c(F)c(Nc3ccc(Br)cc3Cl)c(C(=O)NOCCO)cc21 [Selumetinib] (first compound max 1 µM, 7x7, partner max 10 µM)	0.007	-0.0203	-0.0486	-0.0464	-0.0211	-0.0007	-0.035	-0.004	0.0049	0.0086	0.0742	-0.0238	-0.0221	0.0073	-0.0591	0.0143	0.0139	-0.0233	-0.0134	0.0945
Cc1c2c(nn1C)CSCc1cc(n(C)n1)CSc1cc(c3ccccc3c1)OCCCc1c(C(=O)O)n(C)c3c-2c(Cl)ccc13 [AZD5991] + C1CN(CCC1(C(=O)N[C@@H](CCO)C2=CC=C(C=C2)Cl)N)C3=NC=NC4=C3C=CN4 [Capivasertib] (first compound max 1 µM, 7x7, partner max 3 µM)	0.0145	0.0139	-0.0488	-0.0091	-0.0539	0.0213	0.0369	-0.0186	0.0092	0.0807	-0.037	-0.0881	0.0001	0.023	-0.0287	-0.0189	0.0258	-0.0525	-0.0411	-0.0204
Cc1c2c(nn1C)CSCc1cc(n(C)n1)CSc1cc(c3ccccc3c1)OCCCc1c(C(=O)O)n(C)c3c-2c(Cl)ccc13 [AZD5991] + C=CCn1c(=O)c2cnc(Nc3ccc(N4CCN(C)CC4)cc3)nc2n1-c1cccc(C(C)(C)O)n1 [AZD1775] (first compound max 1 µM, partner max 1 µM)	-0.001	-0.0929	-0.0369	0.0091	0.0184	-0.0185	0.0707	-0.112	-0.0218	0.0583	-0.0195	0.0293	0.0116	0.0351	0.0474	-0.0387	0.03	-0.0441	-0.0587	-0.0036
Cc1c2c(nn1C)CSCc1cc(n(C)n1)CSc1cc(c3ccccc3c1)OCCCc1c(C(=O)O)n(C)c3c-2c(Cl)ccc13 [AZD5991] + CC1(C)CCC(CN2CCN(c3ccc(C(=O)NS(=O)(=O)c4ccc(NCC5CCOCC5)c([N+](=O)[O-])c4)c(Oc4cnc5[nH]ccc5c4)c3)CC2)=C(c2ccc(Cl)cc2)C1 [Venetoclax] (first compound max 1 µM, 7x7, partner max 1 µM)	0.0054	-0.0303	-0.0289	-0.0396	0.005	0.107	-0.0079	0.0209	0.227	0.0117	-0.0304	-0.0698	-0.0463	0.135	-0.0027	-0.034	0.128	-0.0138	-0.005	0.0667
Cc1c2c(nn1C)CSCc1cc(n(C)n1)CSc1cc(c3ccccc3c1)OCCCc1c(C(=O)O)n(C)c3c-2c(Cl)ccc13 [AZD5991] + CCN(CCO)CCCOc1ccc2c(Nc3cc(CC(=O)Nc4cccc(F)c4)[nH]n3)ncnc2c1 [AZD2811] (first compound max 1 µM, 7x7, partner max 1 µM)	0.0381	0.0136	0.0126	0.0318	0.0617	-0.0794	0.0911	-0.0451	0.114	0.0646	-0.0029	-0.0331	0.0272	0.11	0.0153	-0.0142	0.0603	0.149	0.0271	-0.0165
Cc1c2c(nn1C)CSCc1cc(n(C)n1)CSc1cc(c3ccccc3c1)OCCCc1c(C(=O)O)n(C)c3c-2c(Cl)ccc13 [AZD5991] + CN(C)CCCOc1ccc(-c2ccc3ncc4c(c3c2)n(C2CCOCC2)c(=O)n4C)cn1 [AZD0156] (first compound max 1 µM, 7x7, partner max 1 µM)	0.0236	-0.0068	0.0092	-0.0082	0.0527	-0.0515	0.0521	0.0254	0.0218	0.0046	-0.0241	-0.0137	-0.0252	0.0149	0.0042	-0.0109	0.0048	-0.026	-0.0546	0.0075
Cc1c2c(nn1C)CSCc1cc(n(C)n1)CSc1cc(c3ccccc3c1)OCCCc1c(C(=O)O)n(C)c3c-2c(Cl)ccc13 [AZD5991] + C[C@@H]1COCCN1C2=NC(=NC(=C2)C3(CC3)[S@](=N)(=O)C)C4=C5C=CNC5=NC=C4 [AZD6738] (first compound max 1 µM, 7x7, partner max 10 µM)	0.0229	0.0235	0.0575	-0.0103	0.0094	0.135	0.0521	-0.0607	0.0789	0.1	0.0205	0.0026	-0.0023	0.0537	0.0404	-0.0098	0.106	0.0013	-0.0426	-0.0011
Cc1c2c(nn1C)CSCc1cc(n(C)n1)CSc1cc(c3ccccc3c1)OCCCc1c(C(=O)O)n(C)c3c-2c(Cl)ccc13 [AZD5991] + C[C@@H](Nc1cc(F)cc(F)c1)c1cc(C(=O)N(C)C)cc2c(=O)cc(N3CCOCC3)oc12 [AZD8186] (first compound max 1 µM, 7x7, partner max 3 µM)	0.0129	-0.0496	-0.0247	-0.014	-0.001	0.0048	-0.0105	-0.0419	0.0292	0.0291	-0.0327	-0.0414	-0.0802	0.0434	-0.0196	0.0005	0.0056	-0.041	-0.0292	-0.0146
Cc1c2c(nn1C)CSCc1cc(n(C)n1)CSc1cc(c3ccccc3c1)OCCCc1c(C(=O)O)n(C)c3c-2c(Cl)ccc13 [AZD5991] + Cc1cc2ncnn2cc1Nc1ncc2c(n1)n(C1CCOCC1)c(=O)n2C [AZD7648] (first compound max 1 µM, 7x7, partner max 10 µM)	-0.0088	-0.039	-0.0389	-0.0558	-0.0448	-0.0125	-0.017	0.0087	0.0317	0.0136	-0.0151	-0.0517	-0.0033	-0.0301	-0.0238	-0.0341	-0.0585	-0.0497	0.0076	0.0059
C[C@@H]1COCCN1c1cc(C2([S@](C)(=N)=O)CC2)nc(-c2ccnc3[nH]ccc23)n1 [AZD6738] + O=C(c1cc(Cc2n[nH]c(=O)c3ccccc23)ccc1F)N1CCN(C(=O)C2CC2)CC1 [Olaparib] (first compound max 10 µM, 7x7, partner max 10 µM)	0.0132	0.0053	0.0255	0.0226	0.0043	0.0311	0.0374	-0.0084	-0.0498	0.0088	0.0287	-0.027	0.0105	0.0357	0.0182	0.0473	-0.0206	-0.0143	-0.109	-0.0071
Cc1cc2ncnn2cc1Nc1ncc2c(n1)n(C1CCOCC1)c(=O)n2C [AZD7648] + C=CCn1c(=O)c2cnc(Nc3ccc(N4CCN(C)CC4)cc3)nc2n1-c1cccc(C(C)(C)O)n1 [AZD1775] (first compound max 10 µM, partner max 1 µM)	-0.025	-0.0163	0.02	0.0255	-0.0488	-0.0043	0.033	-0.0214	0.014	0.0302	0.0306	0.0558	-0.0629	0.0218	0.0188	0.0502	0.001	-0.0616	-0.0713	0.0086
Cc1cc2ncnn2cc1Nc1ncc2c(n1)n(C1CCOCC1)c(=O)n2C [AZD7648] + CCN(CCO)CCCOc1ccc2c(Nc3cc(CC(=O)Nc4cccc(F)c4)[nH]n3)ncnc2c1 [AZD2811] (first compound max 10 µM, 7x7, partner max 1 µM)	0.0257	-0.017	0.0097	0.0226	0.0012	0.0136	0.0796	-0.0115	0.0203	0.0571	0.0163	-0.0312	0.0646	0.0534	-0.0011	0.0259	-0.0287	-0.0233	0.0234	-0.0377
